Results taken from patent publication US7943641B2, “7-((1H-imidazol-4-yl)methyl)-5,6,7,8-tetrahydroquinoline” (Allergan, Inc., priority 2006, dated 2011).
Where a name gives a salt, the structure may show the parent alone.

How the values were obtained:
α2A adrenergic receptor = molecular target: T1, α2A adrenergic receptor (Homo sapiens, UniProt P08913); assay: RSAT (Receptor Selection and Amplification Technology) assay, α2A; type: cell-based; conditions: NIH-3T3 cells cotransfected with receptor and G protein
T1 construct: expressed in transfected cells; host or cells: NIH-3T3 cells
T1 sequence (P08913 1-465): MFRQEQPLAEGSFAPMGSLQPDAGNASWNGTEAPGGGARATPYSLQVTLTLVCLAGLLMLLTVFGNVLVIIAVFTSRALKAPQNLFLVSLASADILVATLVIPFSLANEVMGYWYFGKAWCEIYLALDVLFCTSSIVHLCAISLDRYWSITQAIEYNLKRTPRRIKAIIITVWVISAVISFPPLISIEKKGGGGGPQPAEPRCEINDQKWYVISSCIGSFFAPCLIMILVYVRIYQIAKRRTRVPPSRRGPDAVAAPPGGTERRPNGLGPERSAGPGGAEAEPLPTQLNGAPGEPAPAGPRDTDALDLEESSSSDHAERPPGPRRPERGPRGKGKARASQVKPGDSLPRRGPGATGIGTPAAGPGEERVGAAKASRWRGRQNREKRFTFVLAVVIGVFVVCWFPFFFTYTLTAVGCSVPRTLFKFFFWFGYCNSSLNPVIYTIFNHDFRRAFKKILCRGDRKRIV
Procedure: Incubations continue 72-96 hr at 37° C.

[1] = system: IOP in the hypertensive eye; assay: Telemetry IOP model (telemetrized primate model); type: in vivo, Cynomolgus monkeys (macaca fascicularis)
Procedure: Cynomolgus (macaca fascicularis) monkeys weighing 3-5 kg with unilateral ocular hypertension in the right eye (OD) are used. Sustained elevated IOP is created by circumferential argon laser photocoagulation (Zeiss Visulas 532) of the mid-trabecular meshwork according to the method of Gaasterland and Kupfer (5). IOPs are assessed at T=−0.1, 0, 1, 2, 4, and 6, hours with an optional reading at 24 hours using an applanation pneumatonometer (Model 30 Classic, mentor Co). A drop of proparacaine (Allergan, Inc.) is instilled into the eyes just prior to IOP measurements. Monkeys are chaired and conditioned for tonometry for months before initiation of the study. Results are averaged from the 2 hr to the 6 hr time points (averages for each animal are calculated and the group mean determined) in an effort to simplify and standardize the data and include a comparison of sustained responses. Depending on the design of the study, either a paired or unpaired Student's t test is done. P<0.05 is considered significant.
Telemetry IOP model. Cynomolgus monkeys (3-5 kg) are made unilaterally ocular hypertensive by argon laser as noted above. The telemetry implant procedure is performed following elevation of IOP. Briefly, the scalp is prepared for aseptic surgery, followed by a 4 cm incision and tissue blunt-dissection to form a pocket in the underlying fascia to contain the pressure transducer. The catheter from the transducer is then guided subcutaneously to the orbit, and inserted into the vitreous cavity of the glaucoma eye through a small opening in the pars plana which is sutured closed and fixed with tissue adhesive. Receivers are placed into the animal cages and connected to a computer running Dataquest software for data capture. Animals are housed in a 12 hours light, 12 hours dark cycle: 6:00 AM ON, 6:00 PM OFF. Animals are used in drug studies following recovery from the surgical procedure which takes 2 weeks to 1 month. Dosing is done by transferring animals to restraining chairs. Animals are dosed without the aid of a sedative. […]

| Compound | EC50 (α2A adrenergic receptor) [nM] | % IOP decrease from baseline in the hypertensive eye ([1]; dose 0.30%) [%] | % IOP decrease from baseline in the hypertensive eye ([1]; dose 0.15%) [%] |
| --- | --- | --- | --- |
| c1cnc2c(c1)CCC(Cc1c[nH]cn1)C2 (racemic) [racemic mixture, 7-(1H-Imidazol-4-ylmethyl)-5,6,7,8-tetrahydro-quinoline dihydrochloride] | 3.9 | 30 | – |
| c1cnc2c(c1)CCC(Cc1c[nH]cn1)C2 (single isomer, unassigned; (+)) [(+) enantiomer, (+)-7-(1H-imidazol-4-ylmethyl)-5,6,7,8-tetrahydro-quinoline dihydrochloride] | 2.9 | – | 30 |
| c1cnc2c(c1)CCC(Cc1c[nH]cn1)C2 (single isomer, unassigned; (-)) [(−) enantiomer, (−) 7-((1H-imidazol-4-yl)methyl)-5,6,7,8-tetrahydroquinoline] | 58.4 | 0 | – |
